± gives the expanded uncertainty stated by the source.
Test: activity coefficient (dimensionless); of the first substance listed, at infinite dilution; xn = mol fraction of the nth substance listed
Settings: Liquid, Chromatography, x1 = 0

Structure (SMILES)	activity coefficient (303.15 K)	activity coefficient (313.15 K)	activity coefficient (323.15 K)	activity coefficient (333.15 K)	activity coefficient (343.15 K)	activity coefficient (353.15 K)	activity coefficient (363.15 K)
Cc1ccccc1C [1,2-dimethylbenzene] + CCCCCCn1cc[n+](C)c1.O=S(=O)([O-])C(F)(F)F	2.39 ± 0.25	2.47 ± 0.26	2.56 ± 0.27	2.64 ± 0.28	2.67 ± 0.28	2.72 ± 0.28	2.8 ± 0.29
Cc1cccc(C)c1 [1,3-dimethylbenzene] + CCCCCCn1cc[n+](C)c1.O=S(=O)([O-])C(F)(F)F	2.82 ± 0.3	2.88 ± 0.3	2.97 ± 0.31	3.03 ± 0.32	3.12 ± 0.33	3.19 ± 0.34	3.25 ± 0.34
Cc1ccc(C)cc1 [1,4-dimethylbenzene] + CCCCCCn1cc[n+](C)c1.O=S(=O)([O-])C(F)(F)F	2.76 ± 0.29	2.84 ± 0.3	2.91 ± 0.3	2.97 ± 0.31	3.08 ± 0.32	3.16 ± 0.33	3.22 ± 0.34
CC(C)CC(C)(C)C [2,2,4-trimethylpentane] + CCCCCCn1cc[n+](C)c1.O=S(=O)([O-])C(F)(F)F	27.5 ± 2.9	26.9 ± 2.8	26.7 ± 2.8	26.3 ± 2.8	25.9 ± 2.7	25.7 ± 2.7	25.4 ± 2.7
c1ccccc1 [benzene] + CCCCCCn1cc[n+](C)c1.O=S(=O)([O-])C(F)(F)F	1.43 ± 0.15	1.48 ± 0.15	1.5 ± 0.16	1.55 ± 0.16	1.6 ± 0.2	1.64 ± 0.17	1.65 ± 0.17
C1CCCCC1 [cyclohexane] + CCCCCCn1cc[n+](C)c1.O=S(=O)([O-])C(F)(F)F	11 ± 1.1	10.9 ± 1.1	10.8 ± 1.1	10.7 ± 1.1	10.6 ± 1.1	10.5 ± 1.1	10.5 ± 1.1
C1=CCCCC1 [cyclohexene] + CCCCCCn1cc[n+](C)c1.O=S(=O)([O-])C(F)(F)F	6.12 ± 0.64	6.2 ± 0.65	6.26 ± 0.66	6.37 ± 0.67	6.43 ± 0.68	6.5 ± 0.68	6.55 ± 0.69
CCCCCCCCCC [decane] + CCCCCCn1cc[n+](C)c1.O=S(=O)([O-])C(F)(F)F	457 ± 48	357 ± 38	279 ± 29	227 ± 24	184 ± 19	148 ± 16	112 ± 12
CCc1ccccc1 [ethylbenzene] + CCCCCCn1cc[n+](C)c1.O=S(=O)([O-])C(F)(F)F	2.88 ± 0.3	2.94 ± 0.31	2.99 ± 0.31	3.04 ± 0.32	3.12 ± 0.33	3.21 ± 0.34	3.27 ± 0.34
CCCCCCC [heptane] + CCCCCCn1cc[n+](C)c1.O=S(=O)([O-])C(F)(F)F	26.9 ± 2.8	26.7 ± 2.8	26.6 ± 2.8	26.5 ± 2.8	26.4 ± 2.8	26.3 ± 2.8	26.1 ± 2.7
CCCCCC [hexane] + CCCCCCn1cc[n+](C)c1.O=S(=O)([O-])C(F)(F)F	21.3 ± 2.2	21.2 ± 2.2	21.1 ± 2.2	20.9 ± 2.2	20.8 ± 2.2	20.7 ± 2.2	20.5 ± 2.2
CC1CCCCC1 [methylcyclohexane] + CCCCCCn1cc[n+](C)c1.O=S(=O)([O-])C(F)(F)F	14.1 ± 1.5	14 ± 2	13.9 ± 1.5	13.8 ± 1.4	13.7 ± 1.4	13.6 ± 1.4	13.5 ± 1.4
CCCCCCCCC [nonane] + CCCCCCn1cc[n+](C)c1.O=S(=O)([O-])C(F)(F)F	45.4 ± 4.8	44.6 ± 4.7	43.7 ± 4.6	42.3 ± 4.5	41.8 ± 4.4	40.3 ± 4.2	39.9 ± 4.2
CCCCCCCC [octane] + CCCCCCn1cc[n+](C)c1.O=S(=O)([O-])C(F)(F)F	35 ± 3.7	34.5 ± 3.6	33.9 ± 3.6	33.4 ± 3.5	33.1 ± 3.5	32.7 ± 3.4	32 ± 3.4
CCCCC [pentane] + CCCCCCn1cc[n+](C)c1.O=S(=O)([O-])C(F)(F)F	14.8 ± 1.6	14.6 ± 1.5	14.5 ± 1.5	14.3 ± 1.5	14.1 ± 1.5	14 ± 1.5	13.9 ± 1.5
C=Cc1ccccc1 [styrene] + CCCCCCn1cc[n+](C)c1.O=S(=O)([O-])C(F)(F)F	1.7 ± 0.2	1.73 ± 0.18	1.76 ± 0.18	1.81 ± 0.19	1.84 ± 0.19	1.85 ± 0.19	1.88 ± 0.2
Cc1ccccc1 [toluene] + CCCCCCn1cc[n+](C)c1.O=S(=O)([O-])C(F)(F)F	1.98 ± 0.21	2.03 ± 0.21	2.06 ± 0.22	2.14 ± 0.23	2.2 ± 0.23	2.25 ± 0.24	2.27 ± 0.24
